Results from patent US10278966B2, “Method of isolating quaternary phenanthroindolizidine alkaloids with G-quaduplex DNA binding activity from Tylophra atrofolliculata, compositions comprising them and their medical use” (Macau University of Science and Technology, priority 2016, dated 2019).
Several values for one entry are separate records, joined by “and”; a condition that tells them apart may be missing. Equal entries are not always repeated.

Tested on: human telomeric DNA G-quadruplex
Test: ESI-TOF-MS G-quadruplex binding assay
Conditions: for Relative binding affinity (RBA): negative ESI-TOF-MS, 10 uM human telomeric DNA (27 nt) and 10 uM compound in 10 mM ammonium acetate, RBA = sum of complexes peaks areas / sum of G-quadruplex DNA peaks areas, means ± SD
Protocol: UV data were recorded using a Beckman DU 800 UV/vis spectrophotometer. HRESIMS were recorded on an Agilent 6230 ESI-TOF mass spectrometer. NMR spectra were obtained from Bruker Ascend™ 600 spectrometer equipped with a cyro platform. Silica gel (Devisil®, 40˜63 micron) was used for column chromatography. Silica gel plates (Merck, DC Kieselgel 60 F254) was used for TLC analysis. High-performance liquid chromatography (HPLC) was carried out on Agilent 1100, Agilent 1200 and Waters 1525-2489 apparatus with a semi-preparative column (Waters, XBridge® Prep C18, 5 μm, 250×10 mm). 27 nt human telomeric DNA (M monoisotopic=8492.4 Da, Invitrogen) was used for G-quadruplex binding assay, which was the same as the one applied in Bai, L. P. et al. PloS One 2013, 8, e53962. The G-quadruplex binding analysis was conducted on a Bruker maXis impact mass spectrometer equipped with a kdScientific syringe pump (Holliston, Mass., USA). Solvents for HPLC separation analysis were HPLC grade.
Electrospray ionization time-of-flight mass spectrometry (ESI-TOF-MS) experiments were conducted on a Bruker maXis impact mass spectrometer in the negative mode (Bai, L. P., Plos One, 2013, 8, e53962; Bai, L. P., Sci. Rep. 2014, 4, 6767). The ESI source parameters were set as follows: end plate offset voltage of 500 V, capillary voltage of 3000 V, nebulizer of 1.0 bar, dry gas flow of 4.0 L/min at 160° C. The flow rate of sample injection into the mass spectrometer was set at 3 uL/min by using a kdScientific syringe pump. Each mass spectrum was obtained by an average of at least 30 scans. The mixture of a final concentration of 10 uM nucleic acid, i.e. human telomeric DNA (27 nt) (M=8496.6 Da), and 10 uM phenanthroindolizidine alkaloid in 10 mM ammonium acetate was directly injected into mass spectrometer. Data were obtained from three parallel samples of nucleic acid-drug complex solution, and then analyzed with the software of Compass DataAnalysis.
ESI-TOF-MS was utilized to investigate the non-covalent binding capacity of compounds 1 to 7, i.e. compounds of Formulas (2) to (8) with human telomeric DNA G-quadruplex formed by the human telomeric sequence. The human telomeric sequence is known and disclosed in Bai, L. P. et al. PloS One 2013, 8, e53962. 13aS-tylophorine compound 8, i.e. compound of Formula (9):
[drawing 17] and reference G-quadruplex binder sanguinarine were used as control (Bai, L. P., Anal. Bioanal. Chem., 2008, 392, 709; Bai, L. P., Bioorg. Med. Chem., 2006, 14, 5439). […] The relative binding affinities (RBA) of tested compounds were calculated to evaluate their binding capacities to human telomeric DNA G-quadruplex using the equation: RBA=Σcomplexes peaks areas/ΣG-quadruplex DNA peaks areas

Row | Compound | Relative binding affinity (RBA) | potency in RBA value, times that of 3-demethyl analogue compound 2 (ratio of RBA values) | RBA value, times higher than that of 2-methoxylated/hydroxylated analogues compound 5 or 1 (ratio of RBA values)
1 | COc1cc2c(cc1O)c1cc3[n+](cc1c1cc(OC)c(OC)cc21)CCC3 [compound 1, 2-demethyldehydrotylophorine] | 0.265 and 0.265 ± 0.008 | – | –
2 | COc1cc2c(cc1O)c1cc(O)ccc1c1cc3[n+](cc21)CCC3 [compound 2, 3-demethylanhydrodehydrotylophorinidine] | 0.122 and 0.122 ± 0.007 | – | –
3 | COc1cc2c(cc1O)c1cc(OC)c(O)cc1c1cc3[n+](cc21)CCC3 [compound 3, 2-hydroxylanhydrodehydrotylophorinidine] | 0.189 and 0.189 ± 0.002 | – | –
4 | COc1cc2c(cc1O)c1cc(OC)c(OC)cc1c1cc3[n+](cc21)CCC3 [compound 4, 6-demethyldehydrotylophorine] | 0.238 and 0.238 ± 0.010 | – | –
5 | COc1cc2c3cc(OC)c(OC)cc3c3c[n+]4c(cc3c2cc1OC)CCC4 [compound 5, dehydrotylophorine] | 0.290 and 0.290 ± 0.017 | – | –
6 | COc1ccc2c(c1)c1cc(O)c(OC)cc1c1c[n+]3c(cc21)CCC3 [compound 6, an hydrodehydrotylophorinidine] | 0.437 and 0.437 ± 0.019 | at least 3 times | –
7 | COc1ccc2c(c1)c1cc(OC)c(OC)cc1c1c[n+]3c(cc21)CCC3 [compound 7, tylophoridicine D] | 0.619 and 0.619 ± 0.016 | – | at least 2 times
8 | COc1cc2c3c(c4cc(OC)c(OC)cc4c2cc1OC)CN1CCC[C@H]1C3 [compound 8, 13aS-tylophorine, reference compound] | 0.168 and 0.168 ± 0.007 | – | –
